Measured values: patent publication US6596878B2, “Methods and compositions for inhibiting cell proliferative disorders” (Yissum Research & Development Company of the Hebrew …, priority 1994, dated 2003)
Where two headings read alike, the source gives them in different places.

How the values were obtained:
HER2 = target: T1, HER2 (Homo sapiens, UniProt P04626); assay: HER2-BT474 whole cell kinase ELISA; format: cell-based
T1 construct: the human mammary carcinoma line BT474 (ATCC HTB2) expressing HER2; endogenous in cells; host or cells: BT474 human mammary carcinoma cells
Description: HER2-BT474 assays measuring whole cell HER2 activity was carried out as described below:
All the following steps are at room temperature and aseptically, unless stated otherwise. All ELISA plate washing is by rinsing with distilled water three times and once with TBST.
Incubate the cells in 5% CO2 at 37° C. overnight.
2. ELISA Plate Coating and Blocking

human EGF receptor = target: T2, human EGF receptor (Homo sapiens, UniProt P00533); assay: EGF-receptor whole cell kinase assay (EGFR-3T3); format: cell-based
T2 construct: expressed in transfected cells; host or cells: NIH3T3 clone C7 (EGFR/C7; mouse fibroblasts)
Description: (§1) The following target cells were used for cellular kinaseassays: NIH3T3 clone C7 (Honegger et al., supra) engineered to over-express human EGF receptor; NIH3T3 cells engineered to over-express a chimeric receptor containing the EGFR extracellular domain and the HER2 intracellular kinase domain; the human mammary carcinoma line BT474 (ATCC HTB2) expressing HER2; and the human glioblastoma line U1242 that expresses PDGFR-β. Growth assays were carried out using human mammary epithelial SKBR3 (ATCC HTB30) cells, SKOV3 (ATCC HTB77) human ovarian cancer cell line, A431 cells, MCF7 human breast carcinoma cells, MCF7 cells overexpress the HER2 kinase (MCF7-HER2), NIH3T3 cells, and NIH3T3 cells overexpressing the HER2 kinase (3T3-HER2).
Unless otherwise stated the effect of various compounds on receptor tyrosine kinases were assayed as described in this section.
1. EGF-receptor Whole Cell Kinase Assay
EGFR kinase activity (EGFR-3T3 assay) in whole cells was measured as described below:
The following protocol was used:
A. Coat ELISA plates (Corning, 96 well, Cat. #25805-96) with 05-101 antibody at 0.5 μg per well in PBS, 150 μl final volume/well, and store overnight at 4° C. Coated plates are good for up to 10 days when stored at 4° C.
B. On day of use, remove coating buffer and replace with blocking buffer (5% Carnation Instant Non-Fat Dry Milk in PBS). Incubate the plate, shaking, at room temperature (about 23° C. to 25° C.) for 30 minutes. Just prior to use, remove blocking buffer and wash plate 4 times with TBST buffer.
A. EGFR/C7 cell line (Honegger, et al., Cell 51:199-209, 1987) can be use for this assay.
B. Choose dishes having 80-90% confluence for the experiment. Trypsinize cells and stop reaction by adding 10% CS DMEM medium. Suspend cells in DMEM medium (10% CS DMEM medium) and centrifuge once at 1000 rpm, and once at room temperature for 5 minutes.
C. Resuspend cells in seeding medium (DMEM, 0.5% bovine serum), and count the cells using trypan blue. Viability above 90% is acceptable. Seed cells in DMEM medium (0.5% bovine serum) at a density of 10,000 cells per well, 100 μl per well, in a 96 well microtiter plate. Incubate seeded cells in 5% CO2 at 37° C. for about 40 hours.
A. Check seeded cells for contamination using an inverted microscope. Dilute drug stock (10 mg/ml in DMSO) 1:10 in DMEM medium, then transfer 5 μl to a test well for a final drug dilution of 1:200 and a final DMSO concentration of […]. Control wells receive DMSO alone. Incubate in 5% CO2 at 37° C. for one hour.
B. Prepare EGF ligand: dilute stock EGF in DMEM so that upon transfer of 10 μl dilute EGF (1:12 dilution), 25 nM final concentration is attained.
C. Prepare fresh HNTG* sufficient for 100 μl per well; and place on ice.
D. After two hours incubation with drug, add prepared EGF ligand to cells, 10 μl per well, to yield a final concentration of 25 nM. Control wells receive DMEM alone. Incubate, shaking, at room temperature, for 5 minutes.
E. Remove drug, EGF, and DMEM. Wash cells twice with PBS. Transfer HNTG* to cells, 100 μl per well. Place on ice for 5 minutes. Meanwhile, remove blocking buffer from other ELISA plate and wash with TBST as described above.
F. With a pipette tip securely fitted to a micropipettor, scrape cells from plate and homogenize cell material by repeatedly aspirating and dispensing the HNTG* lysis buffer. Transfer lysate to a coated, blocked, and washed ELISA plate. Incubate shaking at room temperature for one hour.
G. Remove lysate and wash 4 times with TBST. Transfer freshly diluted anti-Ptyr antibody to ELISA plate at 100 μl per well. Incubate shaking at room temperature for 30 minutes in the presence of the anti-Ptyr antiserum (1:3000 dilution in TBST).
H. Remove the anti-Ptyr antibody and wash 4 times with TBST. Transfer the freshly diluted TAGO anti-rabbit IgG antibody to the ELISA plate at 100 μl per well.

[1] = test system: MCF7 human breast carcinoma cells; assay: MCF-7 SRB growth assay; format: cell-based; settings: Table VI, 10% FBS, four days
Description: as §1, with “This example illustrates the ability of the exemplary compounds to inhibit receptor tyrosine kinases, such as HER2 and/or EGFR. The” for “The”
6. MCF-7 SRB Growth Assay
(§2) MCF-7 cells are seeded at 2000 cells/ well in a 96-well flat bottom plate in normal growth media, which was 10% FBS/RPMI supplemented with 2 mM Glutamine. The plate of cells is incubated for about 24 hours at 37° C. after which it receives an equal volume of compound dilution per well making the total volume per well 200 μl. The compound is prepared at 2 times the desired highest final concentration and serially diluted in the normal growth media in a 96-well round bottom plate and then transferred to plate of cells. DMSO serves as the vector control up to 0.2% as final concentration. The cells are then incubated at 37° C. in a humidified 5% CO2 incubator.
(§3) Four days following dosing of compound, the media is discarded and 200 μl/well of ice-cold 10% TCA (Trichloroacetic Acid) is added to fix cells. After 60 minutes at 4° C., the TCA is discarded and the plate is rinsed 5 times with water. The plate is then air-dried and 100 μl/well of 0.4% SRB (Sulforhodamine B from Sigma) in 1% Acetic Acid is added to stain cells for 10 minutes at room temperature. The SRB is discarded and the plate is rinsed 5 times with 1% Acetic Acid. After the plate is completely dried, 100 μl/well of 10 mM Tris-base is added to solubilize the dye. After 5 to 10 minutes, the plate is read on a Dynatech ELISA Plate Reader at dual wavelengths at 570 nm and 630 nm.

[2] = test system: MCF7 cells overexpress the HER2 kinase (MCF7-HER2); assay: MCF-7/HER-2 SRB growth assay; format: cell-based, human; settings: Table VI, 0.5% FBS, four days
Description: as §1, with “This example illustrates the ability of the exemplary compounds to inhibit receptor tyrosine kinases, such as HER2 and/or EGFR. The” for “The”
as §2, §3
8. MCF-7/HER-2 SRB Growth Assay
The protocol is basically the same as that above (for the MCF-7 Growth Assay) except that immediately before the compound is added, the normal growth media is removed and 0.5% FBS/RPMI supplemented with 2 mM Glutamine is added onto the cells. The compound is also prepared in this 0.5% serum media. The plate of cells is incubated for four days and developed as usual.

A431 cells = assay: A431 growth assay (sulphorhodamine B); format: cell-based; settings: Homo sapiens, A-431, 96 h; Table V; 4 days, SRB; read-out: Estimated IC50 Growth Assays A431 cells
Description: as §1, with “This example illustrates the ability of the exemplary compounds to inhibit receptor tyrosine kinases, such as HER2 and/or EGFR. The” for “The”
SKBR3 cells over-express HER2. A431 cells over-express EGFR. These cells were dispensed into 96-well plates with test compounds. After 4 days the monolayers were TCA-fixed then stained with sulphorhodamine B. The absorbance versus log drug concentration was plotted and IC50 values estimated.
(4) Tris, crystallized free base—Fisher Catalog #BP152 Working solution: 10 mM tris=1.211 gram Trizma base/liter H2O. […]
(11) Read optical density at dual wavelength mode 570 nm and 630 nm on Dynatech ELISA plate reader, Model MR 5000.

[3] = HER2-BT474, Table VI, cellular kinase assay
[4] = Table V, read-out: Estimated IC50 Cellular Kinase Assays HER2 (BT474)
[5] = Table V, read-out: Estimated IC50 Cellular Kinase Assays EGFR (EGF-3T3)
[6] = Table VI, cellular kinase assay, read-out: EGFR-3T3
[7] = Table VI, cellular kinase assay, read-out: HER2-BT474
[8] = Estimated IC50 Cellular Kinase Assays HER2 (BT474), Table V
[9] = Table III, cellular kinase assay, class symbol, read-out: HER2
[10] = Table III, cellular kinase assay, class symbol, read-out: EGFR

T2 sequence (P00533 25-1210): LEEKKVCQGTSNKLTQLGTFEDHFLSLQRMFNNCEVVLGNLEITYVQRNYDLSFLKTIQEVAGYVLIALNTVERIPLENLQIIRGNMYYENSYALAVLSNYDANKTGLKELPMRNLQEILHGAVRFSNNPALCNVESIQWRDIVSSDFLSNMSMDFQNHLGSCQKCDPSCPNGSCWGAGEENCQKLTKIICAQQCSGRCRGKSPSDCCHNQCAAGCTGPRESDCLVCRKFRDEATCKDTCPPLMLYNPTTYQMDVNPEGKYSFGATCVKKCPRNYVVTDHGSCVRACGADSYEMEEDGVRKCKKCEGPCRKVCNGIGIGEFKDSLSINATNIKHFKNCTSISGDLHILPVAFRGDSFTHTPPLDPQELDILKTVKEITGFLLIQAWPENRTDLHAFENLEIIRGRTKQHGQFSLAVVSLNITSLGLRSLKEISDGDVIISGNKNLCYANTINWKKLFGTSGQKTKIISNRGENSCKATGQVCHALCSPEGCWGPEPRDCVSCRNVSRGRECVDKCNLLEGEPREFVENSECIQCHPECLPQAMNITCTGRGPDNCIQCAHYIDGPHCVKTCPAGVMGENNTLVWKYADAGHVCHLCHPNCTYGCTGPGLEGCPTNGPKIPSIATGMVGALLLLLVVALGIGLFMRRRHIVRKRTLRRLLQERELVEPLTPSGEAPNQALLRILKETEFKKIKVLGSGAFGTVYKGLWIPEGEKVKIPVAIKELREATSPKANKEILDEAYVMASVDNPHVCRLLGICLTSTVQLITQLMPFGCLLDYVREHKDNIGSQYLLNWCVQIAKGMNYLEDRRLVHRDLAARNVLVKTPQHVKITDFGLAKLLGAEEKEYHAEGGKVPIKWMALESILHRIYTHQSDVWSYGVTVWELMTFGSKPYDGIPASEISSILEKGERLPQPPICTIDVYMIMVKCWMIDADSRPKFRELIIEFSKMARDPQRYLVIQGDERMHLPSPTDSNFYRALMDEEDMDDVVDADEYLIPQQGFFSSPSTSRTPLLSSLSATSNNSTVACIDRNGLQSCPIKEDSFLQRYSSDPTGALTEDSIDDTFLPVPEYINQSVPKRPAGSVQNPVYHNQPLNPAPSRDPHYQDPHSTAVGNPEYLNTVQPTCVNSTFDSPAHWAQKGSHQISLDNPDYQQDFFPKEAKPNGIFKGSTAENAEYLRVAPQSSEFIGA
T1 sequence (P04626 23-1255): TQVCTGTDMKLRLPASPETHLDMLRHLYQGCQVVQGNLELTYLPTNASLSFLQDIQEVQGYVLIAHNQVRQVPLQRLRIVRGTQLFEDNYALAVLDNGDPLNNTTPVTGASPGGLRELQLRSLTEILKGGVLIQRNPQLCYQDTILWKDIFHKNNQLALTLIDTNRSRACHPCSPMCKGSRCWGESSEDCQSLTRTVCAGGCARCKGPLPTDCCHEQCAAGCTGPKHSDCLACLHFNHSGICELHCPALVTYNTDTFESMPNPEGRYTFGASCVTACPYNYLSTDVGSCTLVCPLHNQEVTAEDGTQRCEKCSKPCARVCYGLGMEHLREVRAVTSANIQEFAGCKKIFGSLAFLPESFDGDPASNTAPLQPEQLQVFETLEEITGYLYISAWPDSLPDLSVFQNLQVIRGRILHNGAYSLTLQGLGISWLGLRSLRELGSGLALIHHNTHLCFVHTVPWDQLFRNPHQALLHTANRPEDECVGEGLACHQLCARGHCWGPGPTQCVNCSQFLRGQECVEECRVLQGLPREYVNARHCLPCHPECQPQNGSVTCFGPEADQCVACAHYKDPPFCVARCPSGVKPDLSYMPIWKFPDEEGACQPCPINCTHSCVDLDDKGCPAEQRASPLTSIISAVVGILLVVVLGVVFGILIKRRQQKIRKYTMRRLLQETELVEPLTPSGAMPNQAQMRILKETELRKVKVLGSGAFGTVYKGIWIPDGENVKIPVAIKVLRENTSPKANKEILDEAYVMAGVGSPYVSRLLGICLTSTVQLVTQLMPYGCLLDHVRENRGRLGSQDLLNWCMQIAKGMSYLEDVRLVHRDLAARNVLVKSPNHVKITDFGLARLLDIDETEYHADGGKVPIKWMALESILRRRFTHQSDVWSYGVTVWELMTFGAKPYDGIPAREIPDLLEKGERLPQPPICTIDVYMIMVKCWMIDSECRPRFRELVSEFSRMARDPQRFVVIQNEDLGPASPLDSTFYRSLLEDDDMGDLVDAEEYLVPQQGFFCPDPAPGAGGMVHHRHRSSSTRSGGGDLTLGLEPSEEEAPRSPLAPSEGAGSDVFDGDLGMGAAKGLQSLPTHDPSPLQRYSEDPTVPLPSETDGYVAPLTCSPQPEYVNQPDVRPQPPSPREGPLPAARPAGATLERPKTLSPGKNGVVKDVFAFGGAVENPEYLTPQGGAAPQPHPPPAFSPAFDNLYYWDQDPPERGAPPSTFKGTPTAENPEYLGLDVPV

In the case of `N#C/C(=C\c1ccc(O)c(O)c1)C(=O)NCCCCc1ccccc1` [Compound M10], the IC50 (HER2; [3]) is reported as 30.6 µM, the IC50 (HER2; [4]) is reported as 30.6 µM and the IC50 (human EGF receptor; [5]) is reported as greater than 50 µM. For the same compound, the IC50 (human EGF receptor; [6]) was no less than 50 µM.
`N#CC(C#N)=Cc1cc(O)c(O)c(I)c1` [Compound M12] gave an IC50 (HER2; [4]) greater than 50 µM, an IC50 (HER2; [7]) greater than 50 µM and an IC50 (human EGF receptor; [5]) of 13.4 µM. It also gave an IC50 (human EGF receptor; [6]) of 13.4 µM.
`CC(C)(C)c1cc(C=C(C#N)C#N)cc(Br)c1O` [Compound M14] was tested, and the IC50 (HER2; [4]) was greater than 50 µM, the IC50 (HER2; [7]) was greater than 50 µM and the IC50 (human EGF receptor; [5]) was 37.2 µM. The IC50 (human EGF receptor; [6]) was 37.2 µM.
`CC(C)(C)c1cc(C=C(C#N)c2[nH]nc(N)c2C#N)cc(C(C)(C)C)c1O` [Compound M17] gave an IC50 (HER2; [4]) of 8.58 µM, an IC50 (HER2; [7]) of 8.58 µM and an IC50 (human EGF receptor; [5]) of 8.65 µM. For the same compound, the IC50 (human EGF receptor; [6]) was 8.65 µM.
Work on `CC(C)c1cc(C=C(C#N)C#N)cc(C(C)C)c1O` [Compound M19] yielded an IC50 (HER2; [8]) of 10.6 µM, an IC50 (HER2; [3]) of 10.6 µM and an IC50 (human EGF receptor; [5]) greater than 50 µM. The IC50 (human EGF receptor; [6]) was greater than 50 µM.
In the case of `N#C/C(=C\c1cc(O)c(O)c(I)c1)C(=O)NCc1ccccc1` [Compound M23], the IC50 (HER2; [7]) is reported as 26 µM and the IC50 (human EGF receptor; [6]) is reported as 17 µM.
In the case of `CC(C)c1cc(/C=C(\C#N)C(N)=S)cc(C(C)C)c1O` [Compound M25, (E)-2-Aminothiocarbonyl-3-(3,5-diisopropyl-4-hydroxyphenyl)acrylonitrile], the IC50 (HER2; [7]) is reported as 3.1 µM and the IC50 (human EGF receptor; [6]) is reported as greater than 100 µM.
In the case of `CC(C)c1cc(/C=C(\C#N)C(=O)Nc2ccc(C(F)(F)F)cc2)cc(C(C)C)c1O` [Compound M28, (E)-3-(3,5-Diisopropyl-4-hydroxyphenyl)-2-[(4-trifluoromethyl)phenylaminocarbonyl]acrylonitrile], the IC50 (HER2; [7]) is reported as 2.2 µM, the IC50 ([1]; Homo sapiens, MCF7, 96 h) is reported as 12 µM and the IC50 ([2]; Homo sapiens, MCF7, 96 h) is reported as 2 µM.
`Cc1cc(/C=C(\C#N)S(=O)(=O)/C(C#N)=C/c2cc(C)c(O)c(C)c2)cc(C)c1O` [Compound M38] was tested, and the IC50 (HER2; [7]) was 14 µM, the “activity in cellular assays” value (HER2; cellular assays of the Examples, versus analogous compounds having bulkier R1 and R3 groups) was “less activity” and the IC50 [1] was greater than 100 µM. It also gave an IC50 [2] greater than 100 µM and an IC50 (human EGF receptor; [6]) greater than 100 µM.
For `N#C/C(=C\c1ccc([N+](=O)[O-])c(O)c1)C(=O)NCCCc1ccccc1` [Compound M39, (E)-3-(3-Hydroxy-4-nitrophenyl)-2-[(3-phenyl-n-propyl)aminocarbonyl]acrylonitrile], the IC50 (HER2; [7]) was 39 µM and the IC50 (human EGF receptor; [6]) was 6.8 µM.
`Cc1ccc2ncnc(Nc3cccc(Cl)c3)c2c1` [Compound P12a] showed an IC50 (HER2; [9]) of less than 50 µM, an IC50 (HER2; [4]) of 7.14 µM and an IC50 (A431 cells) of 10 µM. The IC50 (human EGF receptor; [10]) was less than 50 µM and the IC50 (human EGF receptor; [5]) was 0.04 µM.
Compound `COc1cc2ncnc(Nc3cccc(Cl)c3)c2cc1OC` [Compound P13a] has an IC50 (HER2; [9]) of less than 50 µM and an IC50 (HER2; [4]) of 1.6 µM.
Compound `Cc1ccc2ncnc(Nc3ccc4c(c3)OCO4)c2c1` [Compound P14a] has an IC50 (HER2; [9]) greater than 50 µM, an IC50 (HER2; [4]) greater than 50 µM and an IC50 (human EGF receptor; [10]) of less than 50 µM. The IC50 (human EGF receptor; [5]) was 22.2 µM.
`Cc1ccc2ncnc(Nc3ccc4c(c3)OCO4)c2c1` [Compound P14b] gave an IC50 (HER2; [9]) greater than 50 µM, an IC50 (HER2; [4]) greater than 50 µM and an IC50 (human EGF receptor; [10]) of less than 50 µM. For the same compound, the IC50 (human EGF receptor; [5]) was 20.9 µM.
With `N#CC(C#N)=NNc1cccc(Cl)c1` [Compound Q11] the IC50 (HER2; [8]) was 11.1 µM, the “inhibition of HER2 activity” value (HER2; significantly inhibit = IC50 less than 50 μM) was “significantly inhibited” and the IC50 (human EGF receptor; Estimated IC50 Cellular Kinase Assays EGFR (EGF-3T3), Table V) was greater than 50 µM.
Compound `Cc1cc2nc(CBr)c(-c3ccccc3)nc2cc1C` [Compound R9] has an IC50 (HER2; [4]) of 20.7 µM and an IC50 (human EGF receptor; [5]) of 35.5 µM.
In the case of `Clc1cc2ncc(-c3ccccc3)nc2cc1Cl` [Compound R14], the IC50 (HER2; [4]) is reported as 25 µM and the IC50 (human EGF receptor; [5]) is reported as 25 µM.
`Cc1cc2nc3c(nc2cc1C)-c1ccccc1C3=O` [Compound R15] was tested, and the IC50 (HER2; [4]) was greater than 50 µM and the IC50 (human EGF receptor; [5]) was 25 µM.
